# Experimental data: US7842695B2, “Substituted pyrazole compounds” (Merck Patent GmbH, priority 2003, dated 2010)
# What was measured:
# [1] = molecular target: T1, 5 HT2C receptor (Homo sapiens, UniProt P28335); test: affinity to the 5 HT2C receptor; assay type: binding
# T1 sequence (P28335 33-458): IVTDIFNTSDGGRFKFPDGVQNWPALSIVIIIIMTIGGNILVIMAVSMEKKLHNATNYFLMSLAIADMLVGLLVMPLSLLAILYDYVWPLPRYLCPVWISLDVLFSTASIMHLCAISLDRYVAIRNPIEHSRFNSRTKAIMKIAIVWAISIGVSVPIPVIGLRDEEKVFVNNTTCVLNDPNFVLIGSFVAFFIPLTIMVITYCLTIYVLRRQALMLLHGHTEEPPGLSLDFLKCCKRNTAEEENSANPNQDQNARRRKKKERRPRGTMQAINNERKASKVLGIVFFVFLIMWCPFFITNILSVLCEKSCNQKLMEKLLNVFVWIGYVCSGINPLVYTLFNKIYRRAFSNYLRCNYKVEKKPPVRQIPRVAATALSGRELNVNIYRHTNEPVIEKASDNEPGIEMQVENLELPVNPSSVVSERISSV
# [2] = molecular target: 5-HT2A receptors (UniProt P14842); test: in-vitro affinity to 5-HT2A receptors, [3H]ketanserine displacement (Example A1); assay type: binding
# Source text: The 5-HT2A receptors are exposed both to [^3H]ketanserine (a substance known for its affinity to the receptor) and also to the test compound. The decrease in the affinity of [^3H]ketanserine to the receptor is an indication of the affinity of the test substance to the 5-HT2A receptor.
Compound,IC50 [2],IC50 [1]
"CN1CCC(N(C)Cc2cnn(-c3ccc(-c4ccc(F)cc4)cc3)c2-c2ccco2)C1 (stereo not drawn) [Example 529, [1-(4′-Fluorobiphenyl-4-yl)-5-furan-2-yl-1H-pyrazol-4-ylmethyl]methyl-(1-methylpyrrolidin-3-yl)amine]",0.514 nM,434 nM
"COc1ccc(-c2ccc(-n3ncc(CN4CCNCC4)c3-c3ccco3)cc2)cc1 [Example 530, 1-[5-Furan-2-yl-1-(4′-methoxybiphenyl-4-yl)-1H-pyrazol-4-ylmethyl]piperazine]",1.1 nM,200 nM
"CN(C)Cc1cnn(-c2ccc(-c3ccc4c(c3)OCO4)cc2)c1-c1ccco1 [Example 531, [1-(4-Benzo-1,3-dioxol-5-ylphenyl)-5-furan-2-yl-1H-pyrazol-4-ylmethyl]dimethylamine]",1.4 nM,74 nM
"CN1CCN(Cc2cnn(-c3ccc(-c4ccc(F)cc4)cc3)c2-c2ccco2)CC1 [Example 532, 1-[1-(4′-Fluorobiphenyl-4-yl)-5-furan-2-yl-1H-pyrazol-4-ylmethyl]-4-methylpiperazine]",1.48 nM,190 nM
"CCN1CCN(Cc2cnn(-c3ccc(-c4ccc5c(c4)OCO5)cc3)c2-c2ccco2)CC1 [Example 533, 1-[1-(4-Benzo-1,3-dioxol-5-ylphenyl)-5-furan-2-yl-1H-pyrazol-4-ylmethyl]-4-ethylpiperazine]",1.6 nM,224 nM
"c1coc(-c2c(CN3CCNCC3)cnn2-c2ccc(-c3ccc4c(c3)OCO4)cc2)c1 [Example 534, 1-[1-(4-Benzo-1,3-dioxol-5-ylphenyl)-5-furan-2-yl-1H-pyrazol-4-ylmethyl]piperazine]",2 nM,110 nM
"CN1CCN(Cc2cnn(-c3ccc(-c4ccc5c(c4)OCCO5)cc3)c2-c2ccco2)CC1 [Example 535, 1-{1-[4-(2,3-Dihydrobenzo-1,4-dioxin-6-yl)phenyl]-5-furan-2-yl-1H-pyrazol-4-ylmethyl}-4-methylpiperazine]",2.3 nM,350 nM
"CCN1CCN(Cc2cnn(-c3ccc(-c4ccc(F)cc4)cc3)c2-c2occc2C)CC1 [Example 536, 1-Ethyl-4-[1-(4′-fluorobiphenyl-4-yl)-5-(3-methyl-2-furanyl)-1H-pyrazol-4-ytmethyl]piperazine]",3 nM,1000 nM
"CN(C)C1CCN(Cc2cnn(-c3ccc(-c4ccc(F)cc4)cc3)c2-c2ccco2)C1 (stereo not drawn) [Example 537, {1-[1-(4′-Fluorobiphenyl-4-yl)-5-furan-2-yl-1H-pyrazol-4-ylmethyl]pyrrolidin-3-yl}dimethylamine]",3.1 nM,620 nM
"CN(C)Cc1cnn(-c2ccc(-c3cccc(F)c3)cc2)c1-c1ccco1 [Example 538, [1-(3′-Fluorobiphenyl-4-yl)-5-furan-2-yl-1H-pyrazol-4-ylmethyl]dimethylamine]",3.4 nM,170 nM
"CCN1CCN(Cc2cnn(-c3ccc(-c4ccc(F)cc4)cc3)c2-c2ccco2)CC1 [Example 539, 1-Ethyl-4-[1-(4′-fluorobiphenyl-4-yl)-5-furan-2-yl-1H-pyrazol-4-ylmethyl]piperazine]",3.6 nM,310 nM
"CN(C)Cc1cnn(-c2ccc(-c3ccc4c(c3)OCCO4)cc2)c1-c1ccco1 [Example 540, {1-[4-(2,3-Dihydrobenzo-1,4-dioxin-6-yl)phenyl]-5-furan-2-yl-1H-pyrazol-4-ylmethyl}dimethylamine]",3.6 nM,180 nM
"Fc1cccc(-c2ccc(-n3ncc(CN4CCNCC4)c3-c3ccco3)cc2)c1 [Example 541, 1-[1-(3′-Fluorobiphenyl-4-yl)-5-furan-2-yl-1H-pyrazol-4-ylmethyl]piperazine]",3.6 nM,150 nM
"COc1ccc(-c2ccc(-n3ncc(CN(C)C)c3-c3ccco3)cc2)cc1 [Example 542, [5-Furan-2-yl-1-(4′-methoxybiphenyl-4-yl)-1H-pyrazol-4-ylmethyl]dimethylamine]",3.8 nM,290 nM
"CN1CCC(N(C)Cc2cnn(-c3ccc(-c4ccc(F)cc4)cc3)c2-c2ccco2)C1 (stereo not drawn) [Example 543, [1-(4′-Fluorobiphenyl-4-yl)-5-furan-2-yl-1H-pyrazol-4-ylmethyl]methyl-(1-methyl-3-pyrrolidinyl)amine]",4 nM,370 nM
Cc1nn(-c2ccccc2)c(C)c1CN1CCN(C(=O)[C@]2(C)CC[C@@H](C(=O)O)C2(C)C)CC1 [Example 687],210 nM,
"COc1ccc(-c2ccc(-n3ncc(CNCc4nccs4)c3-c3ccco3)cc2)cc1 [Example 688, [5-Furan-2-yl-1-(4′-methoxybiphenyl-4-yl)-1H-pyrazol-4-ylmethyl]thiazol-2-ylmethylamine]",220 nM,
"O=C1CN(Cc2cnn(-c3ccc(-c4ccc5c(c4)OCO5)cc3)c2-c2ccco2)CCN1 [Example 693, 4-[1-(4-Benzo-1,3-dioxol-5-ylphenyl)-5-furan-2-yl-1H-pyrazol-4-ylmethyl]piperazin-2-one]",280 nM,
"COc1ccc(-c2ccc(-n3ncc(CNCc4cc5ccccc5n4C)c3-c3ccco3)cc2)cc1 [Example 695, [5-Furan-2-yl-1-(4′-methoxybiphenyl-4-yl)-1H-pyrazol-4-ylmethyl]-(1-methyl-1H-indol-2-ylmethyl)amine]",300 nM,
"COc1ccc(-c2ccc(-n3ncc(CN(Cc4nccn4C)Cc4nccn4C)c3-c3ccco3)cc2)cc1 [Example 700, [5-Furan-2-yl-1-(4′-methoxybiphenyl-4-yl)-1H-pyrazol-4-ylmethyl]bis-(1-methyl-1H-imidazol-2-ylmethyl)amine]",450 nM,
{[1-(4′-Fluorobiphenyl-4-yl)-5-furan-2-yl-1H-pyrazol-4-ylmethyl]methylamino}phenylpropan-1-ol [Example 587],19 nM,

# Now from value to compound, other results behind:
IC50 [2],Compound,IC50 [1]
220 nM,"Cc1ccoc1-c1c(CN2CCN(C(=O)OC(C)(C)C)CC2)cnn1-c1ccc(-c2ccc(F)cc2)cc1 [Example 689, tert-Butyl 4-[1-(4′-fluorobiphenyl-4-yl)-5-(3-methyl-2-furanyl)-1H-pyrazol-4-ylmethyl]piperazine-1-carboxylate]",
240 nM,"Cc1noc(C)c1-c1c(CN2CCC(O)C2)cnn1-c1ccc(-c2ccc(F)cc2)cc1 (stereo not drawn) [Example 690, 1-[5-(3,5-Dimethylisoxazol-4-yl)-1-(4′-fluorobiphenyl-4-yl)-1H-pyrazol-4-ylmethyl]pyrrolidin-3-ol]",
250 nM,"Cc1noc(C)c1-c1c(CN2CCNCC2)cnn1-c1ccc(-c2ccc(F)cc2)cc1 [Example 691, 1-[5-(3,5-Dimethylisoxazol-4-yl)-1-(4′-fluorobiphenyl-4-yl)-1H-pyrazol-4-ylmethyl]piperazine]",
260 nM,"Fc1ccc(-c2ccc(-n3ncc(CN4CCC(N5CCCC5)CC4)c3-c3ccoc3)cc2)cc1 [Example 692, 1-[1-(4′-Fluorobiphenyl-4-yl)-5-furan-3-yl-1H-pyrazol-4-ylmethyl]-4-pyrrolidin-1-ylpiperidine]",
290 nM,"O=C1NCCCCC1NCc1cnn(-c2ccc(-c3ccc(F)cc3)cc2)c1-c1ccco1 (stereo not drawn) [Example 694, 3-{[1-(4′-Fluorobiphenyl-4-yl)-5-furan-2-yl-1H-pyrazol-4-ylmethyl]amino}azepan-2-one]",
320 nM,"Cc1noc(C)c1-c1c(CN2CCN(C)CC2)cnn1-c1ccc(-c2ccc(F)cc2)cc1 [Example 696, 1-[5-(3,5-Dimethylisoxazol-4-yl)-1-(4′-fluorobiphenyl-4-yl)-1H-pyrazol-4-ylmethyl]-4-methylpiperazine]",
350 nM,"COc1cc2c(cc1OC)CN(Cc1cnn(-c3ccc(-c4ccc(F)cc4)cc3)c1-c1ccco1)CC2 [Example 697, 2-[1-(4′-Fluorobiphenyl-4-yl)-5-furan-2-yl-1H-pyrazol-4-ylmethyl]-6,7-dimethoxy-1,2,3,4-tetrahydroisoquinoline]",
420 nM,"COc1cccc(-c2c(CN3CCC(N4CCCC4)CC3)cnn2-c2ccc(-c3ccc(F)cc3)cc2)c1 [Example 698, 1-[1-(4′-Fluorobiphenyl-4-yl)-5-(3-methoxyphenyl)-1H-pyrazol-4-ylmethyl]-4-pyrrolidin-1-ylpiperidine]",
430 nM,"CC(=O)N(CCN1CCCCC1)Cc1cnn(-c2ccc(-c3ccc(F)cc3)cc2)c1-c1ccco1 [Example 699, N-[1-(4′-Fluorobiphenyl-4-yl)-5-furan-2-yl-1H-pyrazol-4-ylmethyl]-N-(2-piperidin-1-ylethyl)acetamide]",
470 nM,"CN(C)CCN1CCN(Cc2cnn(-c3ccc(-c4ccc(F)cc4)cc3)c2-c2cccc(Cl)c2)CC1 [Example 701, (2-{4-[5-(3-Chlorophenyl)-1-(4′-fluorobiphenyl-4-yl)-1H-pyrazol-4-ylmethyl]piperazin-1-yl}ethyl)dimethylamine]",
470 nM,"Fc1ccc(-c2ccc(-n3ncc(CN4CCN(CCN5CCCCC5)CC4)c3-c3cccc(Cl)c3)cc2)cc1 [Example 702, 1-[5-(3-Chlorophenyl)-1-(4′-fluorobiphenyl-4-yl)-1H-pyrazol-4-ylmethyl]-4-(2-piperidin-1-ylethyl)piperazine]",
480 nM,"Fc1ccc(-c2ccc(-n3ncc(CN4CCN(CCN5CCCC5)CC4)c3-c3cccc(Cl)c3)cc2)cc1 [Example 703, 1-[5-(3-Chlorophenyl)-1-(4′-fluorobiphenyl-4-yl)-1H-pyrazol-4-ylmethyl]-4-(2-pyrrolidin-1-ylethyl)piperazine]",
